Data taken from patent US20240285784A1, “PEPTIDIC CONJUGATES OF SN38 USEFUL IN THE TREATMENT OF CANCER” (FUNDACIÓ INSTITUT DE RECERCA BIOMÈDICA (IRB BARCELONA), priority 2020, published 2024).
Read-outs that look alike come from different tables or passages of the source. *1 amine or outer side, *2 acyl side, *3 side chain or, on linkers, in order; H or OH if unused. Where a SMILES comes first, the peptide text is derived from it. Bridges are numbered along the chain shown (N, C = ends). [ ]: non-standard residue; d: D form. The star is where a group is joined. X1 = CCc1c2c(nc3ccc(O)cc13)-c1cc3c(c(=O)n1C2)COC(=O)[C@@]3(CC)OC(=O)CCCCn1cc(CCCC(=O)NCCCOCCOCCOCCCN*)nn1; Suc = O=C(CCC(=O)[*:2])[*:1]; Dap = NC[C@H](N)C(=O)O

Assays:
Format in all cases: cell-based
[1] = tested on: neuroblastoma cell line LAN-1; assay: MTS cell viability assay, neuroblastoma cell line LAN-1; details: Example 9, Table 3, read-out: IC50 values against cancer cell lines
Excerpt: (§1) Cancer cell lines were obtained from the repository maintained at Hospital Sant Joan de Deu (Barcelona, Spain). Cancer cell lines used in these experiment included cancer types of adult glioma (U373 and U87 cell lines), pediatric gliomas including diffuse intrinsic pontine glioma (HSJD-DIPG-007, HSJD-DIPG-011), and pediatric high-grade glioma (HSJD-GBM-001), retinoblastoma (HSJD-RBT-5, HSJD-RBT-7 and HSJD-RBT-14), Ewing sarcoma (A673), rhabdomyosarcoma (Rd and RH4) and neuroblastoma (LAN-1 and SK-N-JD cell lines and HSJD-NB-004, HSJD-NB-005 and HSJD-NB-016 patient-derived cell models). […] To add the drugs to the cells in culture, SN38-linker A-MiniAp4 (Ia) and irinotecan were prepared in culture medium from stock solutions at concentration 1 mg/mL in water. SN38 was prepared in culture medium from a stock solution at concentration 1 mg/mL in DMSO. […] Activity curves were built for adult glioma cell lines U87 (FIG. 1) and U373 (FIG. 2), pediatric gliomas including DIPG models HSJD-DIPG-007 (FIG. 3) and HSJD-DIPG-011 (FIG. 4), and pediatric high-grade glioma model HSJD-GBM-001 (FIG. 5), retinoblastoma models HSJD-RBT-5 (FIG. 6), HSJD-RBT-7 (FIG. 7) and HSJD-RBT-14 (FIG. 8), Ewing sarcoma cell line A673 (FIG. 9), rhabdomyosarcoma cell lines Rd (FIG. 10) and RH4 (FIG. 11), neuroblastoma cell lines LAN-1 (FIG. 12) and SK-N-JD (FIG. 13) and neuroblastoma patient-derived cell models HSJD-NB-004 (FIG. 14), HSJD-NB-005 (FIG. 15) and HSJD-NB-016 (FIG. 16). The established IC50 values are in Table 3.

[2] = tested on: pediatric high-grade glioma HSJD-GBM-001; assay: cells; details: MTS, 72 h incubation
Excerpt: Cancer cell lines were obtained from the repository maintained at Hospital Sant Joan de Deu (Barcelona, Spain). Cancer cell lines used in these experiment included cancer types of adult glioma (U373 and U87 cell lines), pediatric gliomas including diffuse intrinsic pontine glioma (HSJD-DIPG-007, HSJD-DIPG-011), and pediatric high-grade glioma (HSJD-GBM-001), retinoblastoma (HSJD-RBT-5, HSJD-RBT-7 and HSJD-RBT-14), Ewing sarcoma (A673), rhabdomyosarcoma (Rd and RH4) and neuroblastoma (LAN-1 and SK-N-JD cell lines and HSJD-NB-004, HSJD-NB-005 and HSJD-NB-016 patient-derived cell models). Briefly, between 3000 and 30,000 cancer cells were cultured in 96 well plates and 24 h later the cells were exposed to compound SN38-linker A-MiniAp4 (Ia) (concentration range 1-0.00000001 μM), SN38 (concentration range 1-0.00000001 μM), or irinotecan (concentration range 100-0,000001 μM). To add the drugs to the cells in culture, SN38-linker A-MiniAp4 (Ia) and irinotecan were prepared in culture medium from stock solutions at concentration 1 mg/mL in water. SN38 was prepared in culture medium from a stock solution at concentration 1 mg/mL in DMSO. The tetrazolium compound [3-(4,5-dimethylthiazol-2-yl)-5-(3-carboxymethoxyphenyl)-2-(4-sulfophenyl)-2H-tetrazolium] (MTS assay; Promega, Fitchburg, WI) was used to determine cell viability after 72 h incubation with the drugs. The concentrations of drug required to cause a reduction of 50% in cell proliferation (IC50 and 95% confidence intervals) were calculated with Graphpad Prism 8 software (La Jolla, CA). Activity curves were built for adult glioma cell lines U87 (FIG. 1) and U373 (FIG. 2), pediatric gliomas including DIPG models HSJD-DIPG-007 (FIG. 3) and HSJD-DIPG-011 (FIG. 4), and pediatric high-grade glioma model HSJD-GBM-001 (FIG. 5), retinoblastoma models HSJD-RBT-5 (FIG. 6), HSJD-RBT-7 (FIG. 7) and HSJD-RBT-14 (FIG. 8), Ewing sarcoma cell line A673 (FIG. 9), rhabdomyosarcoma cell lines Rd (FIG. 10) and RH4 (FIG. 11), neuroblastoma cell lines LAN-1 (FIG. 12) and SK-N-JD (FIG. 13) and neuroblastoma patient-derived cell models HSJD-NB-004 (FIG. 14), HSJD-NB-005 (FIG. 15) and HSJD-NB-016 (FIG. 16). The established IC50 values are in Table 3.
The present inventors compared the activity of the new compound SN38 conjugated with MiniAp4 (SN38-linkerA-MiniAp4, example 7 also named G2B-001) and with SN38-linker B-THRre (comparative example 2). Original compound SN38 was used as reference. Cancer cell lines used in these experiments were pediatric gliomas including diffuse intrinsic pontine glioma HSJD-DIPG-007, and pediatric high-grade glioma HSJD-GBM-001. Briefly, 3000 cancer cells were cultured in 96 well plates and 24 h later the cells were exposed to compound compound (Ia) (concentration range 1-0.00000001 μM), SN38-Linker B-THRre (concentration range 1-0.00000001 μM), and SN38 (concentration range 1-0.00000001 μM). To add the drugs to the cells in culture, SN38-Linker A-MiniAp4 (Ia) and SN38-Linker B-THRre were prepared in culture medium from stock solutions at concentration 1 mg/mL in water. SN38 was prepared in culture medium from a stock solution at concentration 1 mg/mL in DMSO. The MTS assay was used to determine cell viability after 72 h incubation with the drugs. The concentrations of drug required to cause a reduction of 50% in cell proliferation (IC50 and 95% confidence intervals) were calculated with Graphpad Prism 8 software (La Jolla, CA). Activity curves were built for cells HSJD-DIPG-007 (FIG. 20) and HSJD-GBM-001 (FIG. 21). The established IC50 values are in Table 4.
Cancer cell lines used in these experiments were pediatric gliomas including diffuse intrinsic pontine glioma HSJD-DIPG-007, and pediatric high-grade glioma HSJD-GBM-001. Briefly, 3000 cancer cells were cultured in 96 well plates and 24 h later the cells were exposed to compounds (Ia), comparative example 1 and comparative example 2 (concentration range 1-0.001 μM for each of them). […]

[3] = tested on: neuroblastoma cell line SK-N-JD; assay: MTS cell viability assay, neuroblastoma cell line SK-N-JD; details: 72 h incubation, Example 9, Table 3, read-out: IC50 values against cancer cell lines
Excerpt: as §1

[4] = tested on: neuroblastoma patient-derived cell model HSJD-NB-004; assay: MTS cell viability assay, neuroblastoma model HSJD-NB-004; details: 72 h incubation, Example 9, Table 3, read-out: IC50 values against cancer cell lines
Excerpt: as §1

[5] = tested on: retinoblastoma cell model HSJD-RBT-14; assay: MTS cell viability assay, retinoblastoma model HSJD-RBT-14; details: 72 h incubation, Example 9, Table 3, read-out: IC50 values against cancer cell lines
Excerpt: as §1

[6] = tested on: diffuse intrinsic pontine glioma HSJD-DIPG-011; assay: MTS cell viability assay, DIPG model HSJD-DIPG-011; details: 72 h incubation, Example 9, Table 3, read-out: IC50 values against cancer cell lines
Excerpt: as §1

[7] = Example 9, Table 3, read-out: IC50 values against cancer cell lines
[8] = Example 11, Table 4, read-out: IC50 values of compounds

Row | Compound | IC50 ([1]; LAN1, 72 h incubation) [nM] | IC50 [2, 7] [µM] | IC50 ([3]; Neuroblastoma cell) [nM] | IC50 [4] [nM] | IC50 [5] [nM] | IC50 [6] [nM] | IC50 [2, 8] [µM] | IC50 ([1]; 72 h incubation) [nM] | IC50 ([2]; Example 12, Table 5, read-out: IC50 values (μM) against cancer cell lines) [µM] | IC50 [3] [nM]
1 | CCc1c2c(nc3ccc(OC(=O)N4CCC(N5CCCCC5)CC4)cc13)-c1cc3c(c(=O)n1C2)COC(=O)[C@]3(O)CC [Irinotecan] | 7000 | 9.57 | 7760 | 9840 | 2600 | 1200 |  |  |  | 
2 | CCc1c2c(nc3ccc(O)cc13)-c1cc3c(c(=O)n1C2)COC(=O)[C@]3(O)CC [SN38, 7-ethyl-10-hydroxy-camptothecin] | 1.96 | 0.00261 | 7.55 | 231 | 1.08 | 1.12 | 0.00631 |  |  | 
3 | CCc1c2c(nc3ccc(O)cc13)-c1cc3c(c(=O)n1C2)COC(=O)[C@@]3(CC)OC(=O)CCCCn1cc(CCCC(=O)NCCCOCCOCCOCCCNC(=O)CCC(=O)N[C@H]2CNC(=O)C[C@@H](C(N)=O)NC(=O)[C@H](CC(C)C)NC(=O)[C@H](C)NC(=O)[C@H]([C@@H](C)O)NC(=O)[C@H](CCC(=O)O)NC(=O)[C@@H]3CCCN3C(=O)[C@H](C)NC(=O)[C@H](CCCCN)NC2=O)nn1 [SN38-linker A-MiniAp4 (Ia)] ({X1-Suc}-[Dap]KAPETALD-NH2; lactam 1-9) |  | 0.0703 |  | 76.9 | 33.5 | 72.9 | 0.00639 | 21.6 | 0.0216 | 13.9
